Source: article PMC6272497, “Biological Activities and Cytotoxicity of Diterpenes from Copaifera spp. Oleoresins” (Molecules, 2015)
Entries after “also recorded” stand apart in the source; their conditions may differ. Values belong to the compound of their own block, whether it stands above or below them.

How the values were obtained:
[1] = tested on: TNF-α production in RAW 264.7 murine macrophages; design: method as in PMID 18267111; details: 20 µM to 50 µM; cited from earlier work
[2] = tested on: MCP-1 production in RAW 264.7 murine macrophages; design: method as in PMID 18267111; details: 20 µM to 50 µM; cited from earlier work
[3] = tested on: HCT -8 cells (colon cancer); design: method as in PMID 12165328; details: single concentration of 78 µM; cited from earlier work
[4] = tested on: SF295 (human glioblastoma); experiment: Alamar Blue assay, tumoral cells SF295; assay type: cell-based; details: 72 h, 20 µmol/L
Protocol: (§1) We also investigated possible cytotoxic effects on tumor cell lines (Table 1). To characterize this activity, the compounds were tested in different tumor cell lines, among which were AGP-01 (gastric), HCT116 (colorectal), MCF07 (breast cancer), NIHOVCAR (ovary), SKAMELL-4 (melanoma), and SF-295 (human glioblastoma), each at a concentration of 20 µM.
(§2) Cytotoxicity assay. The cytotoxicity of diterpene compounds to the murine macrophage cell line J774 was determined by the Alamar Blue method as described by Nakayama et al.. Briefly, adherent cells (5 × 10^3 cells/well) were grown in 96-well tissue culture plates and exposed to substances (2.5 to 10 µg/mL) for 24, 48 and 72 h. After incubation, the Alamar Blue solution (10 μL of 0.4% Alamar Blue (resazurin) in PBS) was added and the cells were incubated for 3 h at 37 °C. Fluorescence was measured (excitation at 545 nm and emission at 595 nm) and expressed as a percentage of the cells in the control after background fluorescence was subtracted. As a positive control of cell death, doxorubicin (5 µg/mL) was used. The assays were performed in triplicate. For the assays with tumoral cells, an Alamar Blue assay was performed using the following cell lines: AGP01—gastric; HCT116—colorectal; MCF07—breast cancer; NIHOVCAR—ovary; SKAMELL4—melanoma; SF295—human glioblastoma, which were seeded in 96-well plates (0.5 × 10^4 cells per well) and incubated in a CO2 atmosphere at 5% and 37 °C. After 24 h, diterpenes at 20 µM were added to each well and incubated for 72 h. Doxorubicin (10 μM) was used as a positive control and DMSO (0.1%) as a negative control. Before the end of the incubation, 10 µL of Alamar Blue (0.02%) was added to each well. The fluorescent signal was monitored using a multiplate reader using a 530–560 nm excitation wavelength and 590 nm emission wavelength. The fluorescent signal generated from the assay was proportional to the number of live cells in the sample, according to the manufacturer.

MCF -7 (breast cancer) = tested on: MCF -7 (breast cancer); design: method as in PMID 12165328; details: single concentration of 78 µM; cited from earlier work
NIHOVCAR (ovary) = experiment: Alamar Blue assay, tumoral cells NIHOVCAR; assay type: cell-based; details: 72 h, 20 µmol/L; listed as Kaurenoic Acid
Protocol: as §1, §2

[5] = tested on: nitric oxide production in J774 macrophages stimulated with LPS; experiment: NO production assay (Griess) in LPS-stimulated J774 cells; assay type: cell-based, murine; details: Mus musculus; J774, LPS 1 µg/mL, 24 h; read-out: inhibition of NO production IC50
Protocol: Our study evaluated the effects of diterpene compounds on the production of nitric oxide in the murine macrophage cell line J774 stimulated with LPS (Figure 2D). NO^• levels were measured by the Greiss method. […] Similar results for kaurenoic acid were observed by Choi et al. […] Figure 2 Effect of the isolated diterpenic acids on nitric oxide (NO^•) and cytokine production in lipopolysaccharide-stimulated J774 cells. (A) TNF-α, (B) IL-6 and (C) IL-10 and (D) NO^•. […] The nitrite and cytokines values are the mean ± S.D. from three independent experiments. Indomethacin was used as a standard. Statistical analysis was performed using the Holm-Sidak multiple comparison. * p < 0.05 when compared to control stimulated with LPS. (1) 3-hydroxy-copalic acid, (2) kaurenoic acid, (3) 3-acetoxy-copalic acid, (4) kolavic acid 15-methyl ester, (5) copalic acid and (6) […]. NO^• production by J774 cells was assayed by measuring the accumulation of nitrite in the culture medium using a Griess reaction. Briefly, after incubation of the cells (1 × 10^6 cells/mL) with diterpene compounds in different concentrations from 6.25 to 100 μM, cells were incubated for 24 h with LPS (1 μg/mL), at 37 °C in a 5% CO2 incubator. Nitric oxide was measured as NO2 in culture supernatant by reaction with Griess reagent. Absorbance of the reaction product was determined at 560 nm using a microplate reader (DTX 800, Beckman). Sodium nitrite was used as a standard to calculate nitrite concentrations.

erythrocyte = experiment: Hemolysis test
Protocol: The assay for the characterization of hemolytic activity aimed to evaluate the potential of diterpenes on lysis of the cell membrane.
Blood was collected in heparinized-tubes from Wistar rats, and washed three times with saline solution (NaCl 0.85% + CaCl2 10 mM) by centrifugation at 700 g for 10 min. The pellet of erythrocyte was re-suspended in saline solution for preparation of erythrocyte suspension −2% (SE). A total of 100 µL of the samples of diluted diterpenes was added to 96-well microplates in different concentrations (6.25 to 800 µM); 100 µL of SE was then added; and the samples were incubated for 60 min at 37 °C under constant agitation. The release of hemoglobin was determined after centrifugation (700 g for 10 min) by photometric analysis of the supernatant at 540 nm. Complete hemolysis was achieved using 0.2% Triton X-100 yielding the 100% control value.

IL-6 production = IL-6 production in LPS-stimulated J774 cells (CBA); assay type: cell-based, murine; details: for inhibition of IL-6 production (words): LPS-stimulated J774
Protocol: Figure 2 Effect of the isolated diterpenic acids on nitric oxide (NO^•) and cytokine production in lipopolysaccharide-stimulated J774 cells. (A) TNF-α, (B) IL-6 and (C) IL-10 and (D) NO^•. […] The nitrite and cytokines values are the mean ± S.D. from three independent experiments. Indomethacin was used as a standard. Statistical analysis was performed using the Holm-Sidak multiple comparison. * p < 0.05 when compared to control stimulated with LPS. (1) 3-hydroxy-copalic acid, (2) kaurenoic acid, (3) 3-acetoxy-copalic acid, (4) kolavic acid 15-methyl ester, (5) copalic acid and (6) hardwickiic acid.
[…] The culture supernatants were collected after 24 h of LPS stimulation. The levels of cytokines in the culture media were measured by flow cytometry (BD Cytometric Bead Array—CBA—Mouse Inflammation kit) according to the manufacturer’s instructions.

IL-10 production = IL-10 production in LPS-stimulated J774 cells (CBA); assay type: cell-based, murine
Protocol: Figure 2 Effect of the isolated diterpenic acids on nitric oxide (NO^•) and cytokine production in lipopolysaccharide-stimulated J774 cells. (A) TNF-α, (B) IL-6 and (C) IL-10 and (D) NO^•. Production of NO^• was assayed in culture supernatants of macrophages stimulated with LPS (1 µg/mL) for 24 h in the presence of the four compounds (25 µg/mL to cytokines and 50 µg/mL to NO^•). The nitrite and cytokines values are the mean ± S.D. from three independent experiments. Indomethacin was used as a standard. Statistical analysis was performed using the Holm-Sidak multiple comparison. * p < 0.05 when compared to control stimulated with LPS. (1) 3-hydroxy-copalic acid, (2) kaurenoic acid, (3) 3-acetoxy-copalic acid, (4) kolavic acid 15-methyl ester, (5) copalic acid and (6) hardwickiic acid.
Macrophage cells (1 × 10^6 cells/mL) were incubated with different concentrations of diterpene compounds (12.5 to 50 μM), and then stimulated with 1 μg/mL of LPS. The culture supernatants were collected after 24 h of LPS stimulation. The levels of cytokines in the culture media were measured by flow cytometry (BD Cytometric Bead Array—CBA—Mouse Inflammation kit) according to the manufacturer’s instructions.

AGP01 (gastric) = experiment: Alamar Blue assay, tumoral cells AGP01; assay type: cell-based; details: 72 h, 20 µmol/L; listed as Kaurenoic Acid
Protocol: as §1, §2

MCF7 (breast cancer) = experiment: Alamar Blue assay, tumoral cells MCF7; assay type: cell-based; details: 72 h, 20 µmol/L
Protocol: as §1, §2

HCT-116 (colorectal) = experiment: Alamar Blue assay, tumoral cells HCT-116; assay type: cell-based; details: 72 h, 20 µmol/L; listed as Kaurenoic Acid
Protocol: as §1, §2

SKMELL28 (melanoma) = experiment: Alamar Blue assay, tumoral cells SKMELL28; assay type: cell-based; details: 72 h, 20 µmol/L
Protocol: as §1, §2

[6] = tested on: TNF-α production and expression; design: method as in PMID 18313400; details: 1 to 20 mg/mL; kaurenoic acid from Helianthus annuus L.; cited from earlier work
CEM (leukemia) = tested on: CEM (leukemia); design: method as in PMID 12165328; details: single concentration of 78 µM; cited from earlier work
[7] = tested on: NO production in RAW 264.7 macrophage stimulated by LPS; design: method as in PMID 16280009; details: RAW 264.7, LPS; kaurenoic acid from Aralia continentalis; read-out: inhibition of NO production IC50; cited from earlier work

SMILES: CC(C)c1ccc2c(c1)CC[C@H]1[C@](C)(C(=O)O)CCC[C@]21C [Dehydroabietic acid]
suppression of TNF-α production [1]: suppresses production | suppression of MCP-1 production [2]: suppresses production

IC50 [5]: 61.2 ± 4.2 µM
SMILES: C=C1C[C@@]23CC[C@H]4[C@@](C)(CCC[C@@]4(C)C(=O)O)[C@@H]2CC[C@@H]1C3 [kaurenoic acid]
inhibition of HCT-8 tumor cells [3]: 45% | Viability inhibition (%) SF295 ([4]; listed as Kaurenoic Acid): 28.0 ± 6.5% | Viability inhibition (%) SF295 ([4]; listed as kaurenoic): around 20% | inhibition of MCF-7 tumor cells (MCF -7 (breast cancer)): 45% | Viability inhibition (%) NIHOVCAR (NIHOVCAR (ovary)): ≤0.01% | hemolytic activity (erythrocyte; 100 µM (abstract)): 61.7% | hemolytic activity (erythrocyte; 100 mM (so in the source)): 61.7% | inhibition of IL-6 production (words) (IL-6 production; listed as Kaurenoic): inhibited the production of IL-6 | inhibition of IL-6 production (words) (IL-6 production; listed as kaurenoic): inhibited IL-6 production | inhibition at 25 µM (IL-6 production; Mus musculus, J774, 25 µM (abstract)): 11.2% | IL-10 production (words) (IL-10 production; 12.5 µM and 25 µM): induced the production of IL-10 | IL-10 production (words) (IL-10 production; 50 µM): this induction decreased | IL-10 production (words) (IL-10 production; LPS-stimulated J774, 12.5 to 50 µM): increased IL-10 production; also recorded: induced IL-10 production; also recorded: induced production of interleukin-10 | Viability inhibition (%) AGP01 (AGP01 (gastric)): 28.1 ± 4.3% | Viability inhibition (%) MCF7 (MCF7 (breast cancer)): ≤0.01% | Viability inhibition (%) HCT-116 (HCT-116 (colorectal)): 0.27 ± 4.3% | Viability inhibition (%) SKMELL28 (SKMELL28 (melanoma)): ≤0.01% | inhibition of TNF-α production and expression [6]: inhibitory activity on the production and expression of TNF-α | inhibition of CEM tumor cells (CEM (leukemia)): 95% | IC50 [7]: 51.7 ± 2.4 µM
